Test results: patent US11998558B2, “Synthetic composition for treating antibiotic associated complications” (GLYCOM A/S, priority 2015, dated 2024)

Tests used:
[1] = test system: B. adolescentis phylogenetic group; assay: Healthy adult study, ITS profiling of the Bifidobacterium community in faecal samples; type: in vivo, human; conditions: healthy adults
Protocol: (§1) A total of 100 male and female healthy adults are recruited to participate in the study. After a screening visit and run-in period of 1-2 weeks, the participants are selected and randomized into ten groups, each of 10 subjects. One group is administered daily a placebo product containing 2 grams of glucose. The remaining 9 groups are administered daily a treatment product containing one of the following: a) 20 g of 2′-FL, b) 10 g of 2′-FL, c) 5 g of 2′-FL, d) 20 g of LNnT, e) 10 g of LNnT, f) 5 g of LNnT, g) 20 g of a 2:1 mixture of 2′-FL and LNnT, h) 10 g of a 2:1 mixture of 2′-FL and LNnT, and i) 5 g of a 2:1 mixture of 2′-FL and LNnT for 2 weeks. The placebo and treatment products are in powder form in a unit dosage container.
(§2) The study runs for 2 weeks with the participants consuming either a placebo or a treatment product daily. Participants are instructed to consume the products in the morning with breakfast. Compliance is monitored through the interactive internet enabled system.
(§3) To assess the Bifidobacterium community, ITS profiling of DNA samples is performed according to Milani et al, FEMS Microbiol. Ecol. 90, 493 (2014). […] Both B. adolescentis and B. pseudocatenulatum are members of the B. adolescentis phylogenetic group. It can be seen that oral ingestion of the HMOs clearly increases the abundance of B. adolescentis and/or B. pseudocatenulatum in the microbiota of healthy adults, as well as its relative abundance compared to the totality of other Bifidobacterium species.

[2] = test system: totality of B. longum + B. bifidum + B. animalis lactis + B. angulatum; assay: as above; type: in vivo, human; conditions: healthy adults
Protocol: as §1, §2, §3

Row | Compound | percentage increase of B. adolescentis phylogenetic group in human faeces after consumption of HMOs ([1]; 5 g daily for 2 weeks) [%] | percentage increase of B. adolescentis phylogenetic group in human faeces after consumption of HMOs ([1]; 10 g daily for 2 weeks) [%] | percentage increase of B. adolescentis phylogenetic group in human faeces after consumption of HMOs ([1]; 20 g daily for 2 weeks) [%] | percentage increase of totality of B. longum + B. bifidum + B. animalis lactis + B. angulatum in human faeces after consumption of HMOs ([2]; 5 g daily for 2 weeks) [%] | percentage increase of totality of B. longum + B. bifidum + B. animalis lactis + B. angulatum in human faeces after consumption of HMOs ([2]; 10 g daily for 2 weeks) [%] | percentage increase of totality of B. longum + B. bifidum + B. animalis lactis + B. angulatum in human faeces after consumption of HMOs ([2]; 20 g daily for 2 weeks) [%]
1 | 2′-fucosyllactose [2′-FL] | 50 | 325 | 120 | 0 | 20 | 15
2 | CC(=O)N[C@H]1[C@H](O[C@H]2[C@@H](O)[C@@H](CO)O[C@@H](O[C@H]3[C@H](O)[C@@H](O)C(O)O[C@@H]3CO)[C@@H]2O)O[C@H](CO)[C@@H](O[C@@H]2O[C@H](CO)[C@H](O)[C@H](O)[C@H]2O)[C@@H]1O (mixture of isomers) [LNnT, lacto-N-neotetraose] | 90 | 195 | 185 | 50 | 130 | 105
